Calls of active or inactive are those of the source. The calls are words filed in the database; no cut-off is given here.
How the values were obtained:
Hepatitis C virus [1] = test: Antiviral activity against Hepatitis C virus infected in mouse HB-1 cells after 24 hrs by ribonuclease replicon assay; format: functional, organism-based, Hepacivirus hominis; settings: HB1, 24 h
[2] = Cytotoxicity against human ORL8 cells after 72 hrs by WST-1 assay; format: cell-based
Hepatitis C virus [3] = test: Antiviral activity against Hepatitis C virus infected in […] after 72 hrs by luciferase reporter gene assay; format: functional, organism-based, Hepacivirus hominis; settings: OR6, 72 h
[4] = Selectivity index, ratio of CC50 for human ORL8 cells to EC50 for Hepatitis C virus infected in […]; format: toxicity, cell-based; settings: read-out: Ratio CC50/EC50
Cancer cell lines = test: Cytotoxicity against human cervical cancer cells; format: functional, cell-based
Human betaherpesvirus 5 = test: Antimicrobial activity against Human cytomegalovirus; format: functional, organism-based
[5] = system: Vesicular stomatitis virus; test: Antimicrobial activity against Vesicular stomatitis virus; format: functional, organism-based
Leukemia cell = test: Cytotoxicity against mouse leukemia cells; format: functional, cell-based
Human alphaherpesvirus 3 = test: Antimicrobial activity against Varicella-zoster virus; format: functional, organism-based
Herpesviridae sp. = test: Antimicrobial activity against Herpes simplex virus; format: functional, organism-based

Row | Compound | EC50 (Hepatitis C virus [1]) [µM] | CC50 at 72 h [2] [µM] | EC50 (Hepatitis C virus [3]) [µM] | selectivity ratio [4] | inhibition (Cancer cell lines) | Activity (Human betaherpesvirus 5) | Activity [5] | inhibition (Leukemia cell) | Activity (Human alphaherpesvirus 3) | Activity (Herpesviridae sp.)
1 | Nc1ncnc2c1ncn2[C@@H]1O[C@H](CO)[C@@H](F)[C@H]1O | 1.2 |  |  |  |  |  |  |  |  | 
2 | Nc1ccn([C@@H]2O[C@](F)(CO)[C@H](F)[C@H]2O)c(=O)n1 |  | 36 | > 100 | < 0.36 |  |  |  |  |  | 
3 | Nc1ccn([C@@H]2O[C@@](F)(CO)[C@H](F)[C@H]2O)c(=O)n1 |  | 23 | > 100 | < 0.23 |  |  |  |  |  | 
4 | CC(C)OC(=O)[C@H](C)N[P@](=O)(OC[C@H]1O[C@@H](n2ccc(=O)[nH]c2=O)[C@](C)(F)[C@@H]1O)Oc1ccccc1 [SOFOSBUVIR] |  | > 5 | 0.14 | > 36 |  |  |  |  |  | 
5 | Nc1ncnc2c1ncn2[C@@H]1O[C@](F)(CO)[C@H](F)[C@H]1O |  | > 200 | > 200 | > 1 | inactive | inactive | inactive | inactive | inactive | inactive
6 | Nc1ccn([C@@H]2O[C@](F)(CO)[C@@H](F)[C@H]2O)c(=O)n1 |  | > 50 | > 50 | < 1 |  |  |  |  |  | 
7 | Nc1ncnc2c1ncn2[C@@H]1O[C@@](F)(CO)[C@@H](F)[C@@H]1O |  | > 200 | > 200 | > 1 | inactive | inactive | inactive | inactive | inactive | inactive
8 | Nc1ncnc2c1ncn2[C@@H]1O[C@@](F)(CO)[C@H](F)[C@H]1O |  | > 100 | > 100 | > 1 | inactive | inactive | inactive | inactive | inactive | inactive
9 | Nc1ncnc2c1ncn2[C@@H]1O[C@H](CO)C[C@H]1O [CORDYCEPIN] |  | 13 | 70 | 0.19 |  |  |  |  |  | 
10 | NC(=O)c1ncn([C@@H]2O[C@H](CO)[C@@H](O)[C@H]2O)n1 [RIBAVIRIN] |  | 100 | 5.6 | 18 |  |  |  |  |  | 
11 | Nc1ncnc2c1ncn2[C@@H]1O[C@](F)(CO)[C@@H](F)[C@H]1O |  | 90 | 4.7 | 19 | inactive | inactive | inactive | inactive | inactive | inactive
